According to PubChem BioAssay (NCI):
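Five concentrations, 48 hours, 96-well plates. Here, GI50 denotes the concentration required for 50% inhibition of growth. Definition used: TGI = concentration required for complete inhibition of growth.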

Tests used:
Experiment in all cases: DTP human tumour cell line panel, 48 h
SK-OV-3 ovarian = system: SK-OV-3 ovarian
RXF 393 renal = system: RXF 393 renal
ACHN renal = system: ACHN renal
SNB-75 CNS = system: SNB-75 CNS
SN12C renal = system: SN12C renal
OVCAR-5 ovarian = system: OVCAR-5 ovarian
A498 renal = system: A498 renal
RPMI-8226 leukemia = system: RPMI-8226 leukemia
PC-3 prostate = system: PC-3 prostate
SW-620 colon = system: SW-620 colon
T-47D breast = system: T-47D breast
SNB-19 CNS = system: SNB-19 CNS
HCT-15 colon = system: HCT-15 colon
NCI-H226 lung = system: NCI-H226 lung
OVCAR-8 ovarian = system: OVCAR-8 ovarian
EKVX NSCLC = system: EKVX NSCLC
UACC-62 melanoma = system: UACC-62 melanoma
HL-60(TB) leukemia = system: HL-60(TB) leukemia
HT29 colon = system: HT29 colon
NCI/ADR-RES ovarian = system: NCI/ADR-RES ovarian
SF-295 CNS = system: SF-295 CNS
UACC-257 melanoma = system: UACC-257 melanoma
786-0 renal = system: 786-0 renal
HS 578T breast = system: HS 578T breast
KM12 colon = system: KM12 colon
MALME-3M melanoma = system: MALME-3M melanoma
MDA-MB-231 breast = system: MDA-MB-231 breast
MOLT-4 leukemia = system: MOLT-4 leukemia
TK-10 renal = system: TK-10 renal

In the case of `Cn1ccnc1C(=O)/C=C/c1ccc(CNC(=O)c2ccc(Cl)cc2)cc1`, the GI50 (SK-OV-3 ovarian) is reported as 5.05 µM, the TGI (SK-OV-3 ovarian) is reported as > 14.3 µM and the GI50 (RXF 393 renal) is reported as 2.07 µM. It also gave a TGI (RXF 393 renal) of 4.56 µM, a GI50 (ACHN renal) of 2.98 µM and a TGI (ACHN renal) of 7.42 µM. It also gave a GI50 (SNB-75 CNS) of 2.41 µM, a TGI (SNB-75 CNS) of 10.3 µM and a GI50 (SN12C renal) of 3.29 µM. For the same molecule, the TGI (SN12C renal) was 11.4 µM, the GI50 (OVCAR-5 ovarian) was 2.52 µM and the TGI (OVCAR-5 ovarian) was 5.73 µM. For the same molecule, the GI50 (A498 renal) was 2.18 µM, the TGI (A498 renal) was 4.17 µM and the GI50 (RPMI-8226 leukemia) was 1.82 µM. For the same molecule, the TGI (RPMI-8226 leukemia) was 6.42 µM, the GI50 (PC-3 prostate) was 2.8 µM and the TGI (PC-3 prostate) was 7.18 µM. It also gave a GI50 (SW-620 colon) of 2.55 µM, a TGI (SW-620 colon) of 5.88 µM and a GI50 (T-47D breast) of 3 µM. The TGI (T-47D breast) was > 14.3 µM, the GI50 (SNB-19 CNS) was 2.15 µM and the TGI (SNB-19 CNS) was 5.37 µM. For the same molecule, the GI50 (HCT-15 colon) was 1.61 µM, the TGI (HCT-15 colon) was 5.39 µM and the GI50 (NCI-H226 lung) was 3.96 µM. For the same molecule, the TGI (NCI-H226 lung) was > 14.3 µM, the GI50 (OVCAR-8 ovarian) was 4.15 µM and the TGI (OVCAR-8 ovarian) was > 14.3 µM. For the same molecule, the GI50 (EKVX NSCLC) was 3.71 µM, the TGI (EKVX NSCLC) was > 14.3 µM and the GI50 (UACC-62 melanoma) was 2.41 µM. The TGI (UACC-62 melanoma) was 5.1 µM, the GI50 (HL-60(TB) leukemia) was 3.4 µM and the TGI (HL-60(TB) leukemia) was 11.6 µM. The GI50 (HT29 colon) was 2.39 µM, the TGI (HT29 colon) was 5.13 µM and the GI50 (NCI/ADR-RES ovarian) was 4.03 µM. The TGI (NCI/ADR-RES ovarian) was > 14.3 µM, the GI50 (SF-295 CNS) was 2.63 µM and the TGI (SF-295 CNS) was 6.51 µM. The GI50 (UACC-257 melanoma) was 3.12 µM, the TGI (UACC-257 melanoma) was 10.2 µM and the GI50 (786-0 renal) was 2.58 µM. For the same molecule, the TGI (786-0 renal) was 5.76 µM, the GI50 (HS 578T breast) was 4.3 µM and the TGI (HS 578T breast) was > 14.3 µM. For the same molecule, the GI50 (KM12 colon) was 2.13 µM, the TGI (KM12 colon) was 4.19 µM and the GI50 (MALME-3M melanoma) was 2.84 µM. For the same molecule, the TGI (MALME-3M melanoma) was 8.12 µM, the GI50 (MDA-MB-231 breast) was 3.36 µM and the TGI (MDA-MB-231 breast) was 14.2 µM. The GI50 (MOLT-4 leukemia) was 3.82 µM, the TGI (MOLT-4 leukemia) was 12.4 µM and the GI50 (TK-10 renal) was 3.92 µM.
